This is an account of results in US20020143013A1, “Thioxazinoquinolones as antiviral agents” (priority 2001, published 2002).

In the assay the target is T1, HCMV polymerase (Human cytomegalovirus, UniProt P08546).
T1 construct: made in house; host or cells: recombinant baculovirus-infected SF-9 cells
Briefly: HCMV polymerase assay (modified scintillation proximity assay). The conditions noted are these: modified SPA assay; compounds diluted in 100% DMSO; 4.5 mM DTT in polymerase buffer. It is filed as biochemical. The procedure: The HCMV polymerase assay is performed using a scintillation proximity assay (SPA) as described in several references, such as N. D. Cook, et al., Pharmaceutical Manufacturing International, pages 49-53 (1992); K. Takeuchi, Laboratory Practice, September issue (1992); U.S. Pat. No. 4,568,649 (1986); which are incorporated by reference herein. Reactions are performed in 96-well plates. The assay is conducted in 100 μl volume with 5.4 mM HEPES (pH 7.5), 11.7 mM KCl, 4.5 mM MgCl2, 0.36 mg/ml BSA, and 90 nM ^3H-dTTP. Assays are run with and without CHAPS, (3-[(3-Cholamidopropyl)-dimethylammonio]-1-propane-sulfonate) at a final concentration of 2 mM. HCMV polymerase is diluted in enzyme dilution buffer containing 50% glycerol, 250 mM NaCl, 10 mM HEPES (pH 7.5), 100 μg/ml BSA, and 0.01% sodium azide. The HCMV polymerase, which is expressed in recombinant baculovirus-infected SF-9 cells and purified according to literature procedures, is added at 10% (or 10 μl) of the final reaction volume, i.e., 100 μl. Compounds are diluted in 50% DMSO and 10 μl are added to each well. Control wells contain an equivalent concentration of DMSO. […] Plates are incubated 10 min. at 37 C., then equilibrated to room temperature, and counted on a Packard Topcount. Linear regressions are performed and IC50's are calculated using computer software. […]
(In general: SPA uses beads or plates that emit light when radiolabelled molecules are held near them.)

T1 sequence (P08546 whole entry): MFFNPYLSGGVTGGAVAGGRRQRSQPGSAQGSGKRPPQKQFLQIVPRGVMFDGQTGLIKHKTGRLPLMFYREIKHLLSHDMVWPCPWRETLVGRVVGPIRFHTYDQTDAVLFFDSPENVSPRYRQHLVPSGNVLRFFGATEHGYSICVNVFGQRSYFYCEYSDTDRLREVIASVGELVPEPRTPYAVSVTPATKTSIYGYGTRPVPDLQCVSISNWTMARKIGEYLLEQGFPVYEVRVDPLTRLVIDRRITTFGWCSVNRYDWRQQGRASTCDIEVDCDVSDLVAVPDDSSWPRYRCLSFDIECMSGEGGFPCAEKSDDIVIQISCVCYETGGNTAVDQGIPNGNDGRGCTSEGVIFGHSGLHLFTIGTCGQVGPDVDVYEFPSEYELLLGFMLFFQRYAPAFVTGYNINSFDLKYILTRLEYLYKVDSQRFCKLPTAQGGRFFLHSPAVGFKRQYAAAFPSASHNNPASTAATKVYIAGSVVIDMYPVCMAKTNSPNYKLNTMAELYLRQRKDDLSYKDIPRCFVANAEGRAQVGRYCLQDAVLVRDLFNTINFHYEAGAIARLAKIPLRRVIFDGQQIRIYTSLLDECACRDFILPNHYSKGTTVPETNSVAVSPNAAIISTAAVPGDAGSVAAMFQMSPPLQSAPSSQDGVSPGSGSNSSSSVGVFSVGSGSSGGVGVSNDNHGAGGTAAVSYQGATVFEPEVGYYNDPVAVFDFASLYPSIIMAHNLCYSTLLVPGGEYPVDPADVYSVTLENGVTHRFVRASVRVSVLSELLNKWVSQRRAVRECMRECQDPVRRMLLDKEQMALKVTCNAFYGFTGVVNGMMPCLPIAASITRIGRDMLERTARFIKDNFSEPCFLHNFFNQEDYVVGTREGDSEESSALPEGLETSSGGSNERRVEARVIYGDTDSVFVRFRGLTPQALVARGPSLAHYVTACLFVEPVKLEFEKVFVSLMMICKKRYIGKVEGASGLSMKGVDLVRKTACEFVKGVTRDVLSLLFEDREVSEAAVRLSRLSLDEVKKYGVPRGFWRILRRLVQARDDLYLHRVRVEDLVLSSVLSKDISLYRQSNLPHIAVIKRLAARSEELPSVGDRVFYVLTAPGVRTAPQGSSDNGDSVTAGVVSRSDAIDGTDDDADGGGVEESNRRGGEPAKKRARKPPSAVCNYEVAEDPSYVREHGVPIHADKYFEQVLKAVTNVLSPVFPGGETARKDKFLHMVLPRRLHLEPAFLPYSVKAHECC

The term IC50 denotes the concentration needed to halve the response being measured. `O=C(NCc1ccc(Cl)cc1)c1cn2c3c(cc(CN4CCOCC4)cc3c1=S)OCC2` [Example 1, N-(4-chlorobenzyl)-9-(4-morpholinylmethyl)-7-thioxo-2,3-dihydro-7H-[1,4]oxazino[2,3,4-ij]quinoline-6-carboxamide] gave a half-maximal inhibitory concentration (IC50) of 0.06 µM.
